Source: the NIST ThermoML archive (doi:10.1016/j.jct.2015.12.027)
± gives the expanded uncertainty stated by the source.

What was measured:
[1] = refractive index (Na D-line) (dimensionless); xn = mol fraction of the nth substance listed; conditions: 81.5 kPa, Liquid, Standard Abbe refractometry
[2] = xn = mol fraction of the nth substance listed; conditions: 81.5 kPa, Liquid, Vibrating tube method

Brc1ccccc1 [bromobenzene] + ClCCCl
Conditions	mass density, 293.15 K [kg/m3]	mass density, 303.15 K [kg/m3]	mass density, 313.15 K [kg/m3]	mass density, 323.15 K [kg/m3]	mass density, 333.15 K [kg/m3]	refractive index, 293.15 K	refractive index, 303.15 K	refractive index, 313.15 K	refractive index, 323.15 K	refractive index, 333.15 K
[1], x2 = 0	–	–	–	–	–	1.55981 ± 0.01	1.55442 ± 0.01	1.5489 ± 0.01	1.54319 ± 0.01	1.53742 ± 0.01
[1], x2 = 0.1031	–	–	–	–	–	1.55145 ± 0.01	1.5466 ± 0.01	1.54165 ± 0.01	1.53652 ± 0.01	1.53135 ± 0.01
[1], x2 = 0.2005	–	–	–	–	–	1.54415 ± 0.01	1.53939 ± 0.01	1.53455 ± 0.01	1.52957 ± 0.01	1.52458 ± 0.01
[1], x2 = 0.3001	–	–	–	–	–	1.53597 ± 0.01	1.53114 ± 0.01	1.52627 ± 0.01	1.5213 ± 0.01	1.51632 ± 0.01
[1], x2 = 0.3997	–	–	–	–	–	1.5262 ± 0.01	1.52135 ± 0.01	1.51645 ± 0.01	1.51147 ± 0.01	1.5065 ± 0.01
[1], x2 = 0.4996	–	–	–	–	–	1.51453 ± 0.01	1.50972 ± 0.01	1.50487 ± 0.01	1.49994 ± 0.01	1.49501 ± 0.01
[1], x2 = 0.6001	–	–	–	–	–	1.50149 ± 0.01	1.49679 ± 0.01	1.49202 ± 0.01	1.48719 ± 0.01	1.48235 ± 0.01
[1], x2 = 0.6993	–	–	–	–	–	1.48764 ± 0.01	1.48301 ± 0.01	1.47833 ± 0.01	1.47357 ± 0.01	1.46881 ± 0.01
[1], x2 = 0.7993	–	–	–	–	–	1.47349 ± 0.01	1.46883 ± 0.01	1.46414 ± 0.01	1.45938 ± 0.01	1.45461 ± 0.01
[1], x2 = 0.8986	–	–	–	–	–	1.45961 ± 0.01	1.45476 ± 0.01	1.44989 ± 0.01	1.44499 ± 0.01	1.44008 ± 0.01
[2], x2 = 0	1495.52 ± 10	1481.97 ± 10	1468.41 ± 10	1454.85 ± 10	1441.22 ± 10	–	–	–	–	–
[2], x2 = 0.1031	1475.66 ± 10	1461.99 ± 10	1448.3 ± 10	1434.54 ± 10	1420.74 ± 10	–	–	–	–	–
[2], x2 = 0.2005	1455.9 ± 10	1442.07 ± 10	1428.17 ± 10	1414.26 ± 10	1400.29 ± 10	–	–	–	–	–
[2], x2 = 0.3001	1434.62 ± 10	1420.64 ± 10	1406.6 ± 10	1392.5 ± 10	1378.34 ± 10	–	–	–	–	–
[2], x2 = 0.3997	1412.26 ± 10	1398.16 ± 10	1383.98 ± 10	1369.73 ± 10	1355.39 ± 10	–	–	–	–	–
[2], x2 = 0.4996	1388.86 ± 10	1374.68 ± 10	1360.39 ± 10	1345.98 ± 10	1331.47 ± 10	–	–	–	–	–
[2], x2 = 0.6001	1364.37 ± 10	1350.09 ± 10	1335.69 ± 10	1321.15 ± 10	1306.48 ± 10	–	–	–	–	–
[2], x2 = 0.6993	1339.1 ± 10	1324.73 ± 10	1310.2 ± 10	1295.56 ± 10	1280.77 ± 10	–	–	–	–	–
[2], x2 = 0.7993	1312.25 ± 10	1297.77 ± 10	1283.16 ± 10	1268.43 ± 10	1253.56 ± 10	–	–	–	–	–
[2], x2 = 0.8986	1283.81 ± 10	1269.28 ± 10	1254.59 ± 10	1239.77 ± 10	1224.87 ± 10	–	–	–	–	–

O=[N+]([O-])c1ccccc1 [nitrobenzene] + ClCCCl
Conditions	mass density, 293.15 K [kg/m3]	mass density, 303.15 K [kg/m3]	mass density, 313.15 K [kg/m3]	mass density, 323.15 K [kg/m3]	mass density, 333.15 K [kg/m3]	refractive index, 293.15 K	refractive index, 303.15 K	refractive index, 313.15 K	refractive index, 323.15 K	refractive index, 333.15 K
[1], x2 = 0	–	–	–	–	–	1.55241 ± 0.01	1.54763 ± 0.01	1.54288 ± 0.01	1.53795 ± 0.01	1.53289 ± 0.01
[1], x2 = 0.1008	–	–	–	–	–	1.54317 ± 0.01	1.53879 ± 0.01	1.53437 ± 0.01	1.52975 ± 0.01	1.52496 ± 0.01
[1], x2 = 0.1993	–	–	–	–	–	1.5343 ± 0.01	1.53004 ± 0.01	1.52579 ± 0.01	1.5214 ± 0.01	1.5169 ± 0.01
[1], x2 = 0.3	–	–	–	–	–	1.5252 ± 0.01	1.52093 ± 0.01	1.51672 ± 0.01	1.51243 ± 0.01	1.5081 ± 0.01
[1], x2 = 0.3997	–	–	–	–	–	1.51592 ± 0.01	1.51157 ± 0.01	1.5073 ± 0.01	1.50299 ± 0.01	1.49867 ± 0.01
[1], x2 = 0.4991	–	–	–	–	–	1.5061 ± 0.01	1.50165 ± 0.01	1.49727 ± 0.01	1.49286 ± 0.01	1.48847 ± 0.01
[1], x2 = 0.6004	–	–	–	–	–	1.49525 ± 0.01	1.49071 ± 0.01	1.48623 ± 0.01	1.48171 ± 0.01	1.4772 ± 0.01
[1], x2 = 0.7006	–	–	–	–	–	1.48353 ± 0.01	1.47893 ± 0.01	1.47436 ± 0.01	1.46977 ± 0.01	1.46518 ± 0.01
[1], x2 = 0.801	–	–	–	–	–	1.47088 ± 0.01	1.46619 ± 0.01	1.46154 ± 0.01	1.45687 ± 0.01	1.45224 ± 0.01
[1], x2 = 0.8997	–	–	–	–	–	1.45787 ± 0.01	1.453 ± 0.01	1.44817 ± 0.01	1.44337 ± 0.01	1.43861 ± 0.01
[2], x2 = 0	1203.05 ± 10	1193.15 ± 10	1183.21 ± 10	1173.27 ± 10	1163.32 ± 10	–	–	–	–	–
[2], x2 = 0.1008	1206.99 ± 10	1196.83 ± 10	1186.61 ± 10	1176.36 ± 10	1166.07 ± 10	–	–	–	–	–
[2], x2 = 0.1993	1211.04 ± 10	1200.58 ± 10	1190.03 ± 10	1179.45 ± 10	1168.82 ± 10	–	–	–	–	–
[2], x2 = 0.3	1215.35 ± 10	1204.56 ± 10	1193.66 ± 10	1182.68 ± 10	1171.66 ± 10	–	–	–	–	–
[2], x2 = 0.3997	1219.84 ± 10	1208.67 ± 10	1197.36 ± 10	1185.98 ± 10	1174.52 ± 10	–	–	–	–	–
[2], x2 = 0.4991	1224.55 ± 10	1212.96 ± 10	1201.23 ± 10	1189.39 ± 10	1177.48 ± 10	–	–	–	–	–
[2], x2 = 0.6004	1229.62 ± 10	1217.53 ± 10	1205.32 ± 10	1193 ± 10	1180.62 ± 10	–	–	–	–	–
[2], x2 = 0.7006	1234.94 ± 10	1222.31 ± 10	1209.57 ± 10	1196.72 ± 10	1183.82 ± 10	–	–	–	–	–
[2], x2 = 0.801	1240.51 ± 10	1227.39 ± 10	1214.06 ± 10	1200.58 ± 10	1187.03 ± 10	–	–	–	–	–
[2], x2 = 0.8997	1246.65 ± 10	1232.66 ± 10	1218.68 ± 10	1204.5 ± 10	1190.22 ± 10	–	–	–	–	–
